Data taken from US9096608B2, “Pharmaceutically active pyrazolo-triazine derivatives” (LEAD DISCOVERY CENTER GMBH, priority 2012, dated 2015).

How the values were obtained:
Assay type in all cases: biochemical
[1] = target: T1, CDK2/CycA (Homo sapiens, UniProt P24941); assay: CDK2 Enzymatic Activity Assay (Lance Kinase Activity Assay, FRET); conditions: Table 5B; symbols per IC50 ranges of b615
T1 construct: purchased Proqinase
Experimental: (§1) This protocol describes how the Lance Kinase Activity Assay was performed to determine IC50 values of compounds of general formula (I) against CDK/Cyclin complexes. The principle behind this enzymatic assay is based upon the phosphorylation of the Ulight-Peptide Substrat. It is detected by using a specific EU-labeled anti-phospho peptide antibody.
(§2) Binding of an inhibitor to the kinase prevents phosphorylation of the ULlight-MBP Substrat, resulting in a loss of FRET.
CDK2 Enzymatic Activity Assay
(§3) The compounds of general formula (I) exemplary summarized in Table 1 were diluted from a 10 mM DMSO stock solution 1:10 in a total volume of 15 μl DMSO. This compound predilution was then serial diluted 1:3 over 8 steps in DMSO and briefly spun down. Each compound solution was now diluted 1:20 in Enzymatic Buffer (HEPES: 50 mM, pH: 7.5; MgCl2: 10 mM; EGTA: 1 mM; DTT: 2 mM; Tween-20: 0.01%), mixed thoroughly and spun down.
(§4) For positive controls, 2 μl of DMSO working solution were mixed with 6 μl CDK2/CycA/substrate working solution and 2 μl ATP working solution. Positive and negative controls were calculated from at least 8 different wells. The 384 well plates were mixed in a Teleshaker plate mixer (Beckman Coulter, Brea, Calif., USA) at 2000 rpm for 40 sec, and incubated for 1 h at room temperature before addition of 10 μl LANCE Detection Buffer (EDTA: 20 nM; Eu-Anti-P-MBP: 4 nM) per well. Plates were mixed in a Teleshaker plate mixer (Beckman Coulter, Brea, Calif., USA) at 2000 rpm for sec, followed by incubation with Detection Buffer for 1 h, and reading. […] IC50 values were determined from the sigmoidal dose response curves with the software Quattro Workflow (Quattro GmbH, Munich, Germany).

[2] = target: T2, CDK7/CycH/Mat1 (Homo sapiens, UniProt P50613); assay: CDK7 Enzymatic Activity Assay (Lance Kinase Activity Assay, FRET); conditions: Table 5A; 25 μM ATP final; read-out: CDK7: IC50 [mM] for CDK7 inhibition (the above defined ranges apply)
T2 construct: purchased Carna
T2 sequence (P50613 whole entry): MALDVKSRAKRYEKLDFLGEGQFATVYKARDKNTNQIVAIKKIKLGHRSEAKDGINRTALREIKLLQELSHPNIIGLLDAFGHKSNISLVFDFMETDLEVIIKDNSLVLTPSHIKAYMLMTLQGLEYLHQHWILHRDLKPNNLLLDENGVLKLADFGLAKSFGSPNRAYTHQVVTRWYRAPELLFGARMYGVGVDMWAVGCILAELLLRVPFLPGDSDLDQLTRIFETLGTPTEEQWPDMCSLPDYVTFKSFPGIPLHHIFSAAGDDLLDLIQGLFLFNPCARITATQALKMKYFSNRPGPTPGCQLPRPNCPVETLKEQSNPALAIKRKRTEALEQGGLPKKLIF
T2 sequence (P51946 whole entry partner): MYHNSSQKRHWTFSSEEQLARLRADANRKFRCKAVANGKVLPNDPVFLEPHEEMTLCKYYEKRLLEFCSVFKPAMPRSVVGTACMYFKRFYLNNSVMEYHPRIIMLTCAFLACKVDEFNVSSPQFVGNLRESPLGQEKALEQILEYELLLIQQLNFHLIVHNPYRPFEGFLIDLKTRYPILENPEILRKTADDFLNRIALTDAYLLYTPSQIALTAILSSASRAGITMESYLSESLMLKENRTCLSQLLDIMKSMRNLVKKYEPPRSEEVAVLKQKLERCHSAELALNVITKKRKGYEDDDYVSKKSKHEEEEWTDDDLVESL
T2 sequence (P51948 whole entry partner): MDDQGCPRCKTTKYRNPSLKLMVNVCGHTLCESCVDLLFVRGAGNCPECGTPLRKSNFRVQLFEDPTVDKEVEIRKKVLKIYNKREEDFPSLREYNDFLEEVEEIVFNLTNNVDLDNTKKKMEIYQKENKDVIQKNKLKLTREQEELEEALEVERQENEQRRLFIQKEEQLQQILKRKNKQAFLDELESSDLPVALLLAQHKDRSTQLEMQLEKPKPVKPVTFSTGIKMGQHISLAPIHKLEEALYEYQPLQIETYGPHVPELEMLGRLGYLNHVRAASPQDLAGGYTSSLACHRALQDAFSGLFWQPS
Experimental: as §1, §2
CDK7 Enzymatic Activity Assay
as §3
as §4, with “6 μl CDK7/CycH/Mat1/substrate working solution” for “6 μl CDK2/CycA/substrate working solution”, “Detection Buffer (1×; EDTA: […];” for “Detection Buffer (EDTA: 20 nM;”, “rpm for 40 sec, followed” for “rpm for sec, followed”

[3] = target: T3, CDK9/Cyclin T1 (Homo sapiens, UniProt P50750); assay: CDK9 Enzymatic Activity Assay (Lance Kinase Activity Assay, FRET); conditions: Table 5B; symbols per IC50 ranges of b615
T3 construct: purchased Invitrogen
T3 sequence (P50750 whole entry): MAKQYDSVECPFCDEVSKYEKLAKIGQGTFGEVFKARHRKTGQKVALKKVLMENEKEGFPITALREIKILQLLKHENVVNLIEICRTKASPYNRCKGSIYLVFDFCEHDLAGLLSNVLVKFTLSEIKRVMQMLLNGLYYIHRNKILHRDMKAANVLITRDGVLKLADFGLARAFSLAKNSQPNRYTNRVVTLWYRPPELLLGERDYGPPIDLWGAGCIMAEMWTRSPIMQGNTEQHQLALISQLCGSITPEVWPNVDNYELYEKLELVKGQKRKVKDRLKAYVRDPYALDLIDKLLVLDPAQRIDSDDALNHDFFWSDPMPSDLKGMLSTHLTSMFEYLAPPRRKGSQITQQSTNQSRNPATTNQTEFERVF
T3 sequence (O60563 whole entry partner): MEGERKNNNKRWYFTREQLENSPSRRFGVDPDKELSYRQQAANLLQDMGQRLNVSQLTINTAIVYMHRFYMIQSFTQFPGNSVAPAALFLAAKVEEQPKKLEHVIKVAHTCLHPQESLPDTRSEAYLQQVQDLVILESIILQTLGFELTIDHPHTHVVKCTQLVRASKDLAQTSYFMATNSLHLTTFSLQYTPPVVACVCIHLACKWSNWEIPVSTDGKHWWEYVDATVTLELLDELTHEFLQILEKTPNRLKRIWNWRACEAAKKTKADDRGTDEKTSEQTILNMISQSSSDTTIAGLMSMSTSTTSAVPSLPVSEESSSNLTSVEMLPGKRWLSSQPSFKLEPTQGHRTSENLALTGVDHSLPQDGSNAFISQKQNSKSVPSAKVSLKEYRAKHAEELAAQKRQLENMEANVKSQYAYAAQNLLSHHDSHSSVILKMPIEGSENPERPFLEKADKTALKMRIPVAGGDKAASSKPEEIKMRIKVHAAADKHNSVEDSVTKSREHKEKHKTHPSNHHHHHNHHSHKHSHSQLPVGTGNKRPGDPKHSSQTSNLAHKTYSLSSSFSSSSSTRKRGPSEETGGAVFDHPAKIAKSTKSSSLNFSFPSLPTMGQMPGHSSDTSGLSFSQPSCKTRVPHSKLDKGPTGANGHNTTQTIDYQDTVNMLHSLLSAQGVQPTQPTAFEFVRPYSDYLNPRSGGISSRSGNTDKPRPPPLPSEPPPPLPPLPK
Experimental: as §1, §2
CDK9 Enzymatic Activity Assay
as §3
as §4, with “CDK9/cyclin T1/substrate” for “CDK2/CycA/substrate”, “(1×; EDTA:” for “(EDTA:”

Row | SMILES | CDK2 IC50 range class [1] | IC50 [2] [nM] | CDK9: Selectivity of CDK7 inhibition over CDK9 inhibition [fold] [3]
1 | CC(C)c1cnn2c(NC(C)c3ccccc3-c3ccccc3)nc(O[C@@H]3CCCNC3)nc12 (stereo partly drawn) [(VII-as), N-(1-([1,1′-biphenyl]-2-yl)ethyl)-8-isopropyl-2-((R)-piperidin-3-yloxy)pyrazolo[1,5-a][1,3,5]triazin-4-amine] | +++ (IC50>2500 nM) | > 100 | +++ (IC50>2500 nM)
2 | CC(C)c1cnn2c(N[C@@H](C)c3ccccc3OC(F)(F)F)nc(O[C@@H]3CCCNC3)nc12 [(VII-at), 8-isopropyl-2-((R)-piperidin-3-yloxy)-N-((S)-1-(2-(trifluoro-methoxy)phenyl)ethyl)pyrazolo[1,5-a][1,3,5]triazin-4-amine] | +++ (IC50>2500 nM) | 30 to 100 | +++ (IC50>2500 nM)
3 | CC(C)c1cnn2c(N[C@@H](C)c3ccccc3I)nc(O[C@@H]3CCCNC3)nc12 [(VII-au), N-((S)-1-(2-iodophenyl)ethyl)-8-isopropyl-2-((R)-piperidin-3-yloxy)pyrazolo[1,5-a][1,3,5]triazin-4-amine] | +++ (IC50>2500 nM) | 10 to 30 | +++ (IC50>2500 nM)
4 | CCOc1ccccc1[C@H](C)Nc1nc(O[C@@H]2CCCNC2)nc2c(C(C)C)cnn12 [(VII-aw), N-((S)-1-(2-ethoxyphenyl)ethyl)-8-isopropyl-2-((R)-piperidin-3-yloxy)pyrazolo[1,5-a][1,3,5]triazin-4-amine] | +++ (IC50>2500 nM) | > 100 | +++ (IC50>2500 nM)
5 | CC(C)c1cnn2c(N[C@@H](C)c3cccc(OC(F)(F)F)c3)nc(O[C@@H]3CCCNC3)nc12 [(VII-ay), 8-isopropyl-2-((R)-piperidin-3-yloxy)-N-((S)-1-(3-(trifluoro-methoxy)phenyl)ethyl)pyrazolo[1,5-a][1,3,5]triazin-4-amine] | +++ (IC50>2500 nM) | 10 to 30 | +++ (IC50>2500 nM)
6 | COc1cc(F)ccc1[C@H](C)Nc1nc(O[C@@H]2CCCNC2)nc2c(C(C)C)cnn12 [(VII-az), N-((S)-1-(4-fluoro-2-methoxyphenyl)ethyl)-8-isopropyl-2-((R)-piperidin-3-yloxy)pyrazolo[1,5-a][1,3,5]triazin-4-amine] | +++ (IC50>2500 nM) | 30 to 100 | +++ (IC50>2500 nM)
7 | CC(C)c1cnn2c(N[C@@H](C)c3ccccc3O)nc(O[C@@H]3CCCNC3)nc12 [(VII-ba), 2-((S)-1-((8-isopropyl-2-((R)-piperidin-3-yloxy)pyrazolo[1,5-a][1,3,5]triazin-4-yl)amino)ethyl)phenol] | +++ (IC50>2500 nM) | < 10 | +++ (IC50>2500 nM)
8 | CC(C)COc1cccc([C@H](C)Nc2nc(O[C@@H]3CCCNC3)nc3c(C(C)C)cnn23)c1 [(VII-bb), N-((S)-1-(3-isobutoxyphenyl)ethyl)-8-isopropyl-2-((R)-piperidin-3-yloxy)pyrazolo[1,5-a][1,3,5]triazin-4-amine] | +++ (IC50>2500 nM) | 30 to 100 | +++ (IC50>2500 nM)
9 | CC(C)Oc1cccc([C@H](C)Nc2nc(O[C@@H]3CCCNC3)nc3c(C(C)C)cnn23)c1 [(VII-bc), N-((S)-1-(3-isopropoxy-phenyl)ethyl)-8-isopropyl-2-((R)-piperidin-3-yloxy)pyrazolo[1,5-a][1,3,5]triazin-4-amine] | +++ (IC50>2500 nM) | 10 to 30 | +++ (IC50>2500 nM)
10 | COc1ccc(OC)c([C@H](C)Nc2nc(O[C@@H]3CCCNC3)nc3c(C(C)C)cnn23)c1 [(VII-bd), N-((S)-1-(2,5-dimethoxy-phenyl)ethyl)-8-isopropyl-2-((R)-piperidin-3-yloxy)pyrazolo[1,5-a][1,3,5]triazin-4-amine] | +++ (IC50>2500 nM) | > 100 | +++ (IC50>2500 nM)
11 | CC(C)c1cnn2c(N[C@@H](C)c3ccccc3Br)nc(O[C@@H]3CCCNC3)nc12 [(VII-be), N-((S)-1-(2-bromophenyl)ethyl)-8-isopropyl-2-((R)-piperidin-3-yloxy)pyrazolo[1,5-a][1,3,5]triazin-4-amine] | +++ (IC50>2500 nM) | < 10 | +++ (IC50>2500 nM)
12 | COc1cc(OC)cc(C(C)Nc2nc(O[C@@H]3CCCNC3)nc3c(C(C)C)cnn23)c1 (stereo partly drawn) [(VII-bg), N-(1-(3,5-dimethoxy-phenyl)ethyl)-8-isopropyl-2-((R)-piperidin-3-yloxy)pyrazolo[1,5-a][1,3,5]triazin-4-amine] | +++ (IC50>2500 nM) | > 100 | +++ (IC50>2500 nM)
13 | CC(C)c1cnn2c(NC(C)c3cccc4c3cnn4C)nc(O[C@@H]3CCCNC3)nc12 (stereo partly drawn) [(VII-bh), 8-isopropyl-N-(1-(1-methyl-1H-indazol-4-yl)ethyl)-2-((R)-piperidin-3-yloxy)pyrazolo[1,5-a][1,3,5]triazin-4-amine] | +++ (IC50>2500 nM) | < 10 | +++ (IC50>2500 nM)
14 | COc1cccc([C@H](C)Nc2nc(OCCN3CCNCC3)nc3c(C(C)C)cnn23)c1 [(VII-bn), (S)-8-isopropyl-N-(1-(3-methoxyphenyl)ethyl)-2-(2-(piperazin-1-yl)ethoxy)pyrazolo[1,5-a][1,3,5]triazin-4-amine] | +++ (IC50>2500 nM) | > 100 | +++ (IC50>2500 nM)
15 | COc1cccc([C@H](C)Nc2nc(OC3CNC3)nc3c(C(C)C)cnn23)c1 [(VII-bv), (S)-2-(azetidin-S-yloxy)-8-isopropyl-N-(1-(3-methoxyphenyl)ethyl)pyrazolo[1,5-a][1,3,5]triazin-4-amine] | +++ (IC50>2500 nM) | < 10 | +++ (IC50>2500 nM)
16 | COc1cccc([C@H](C)Nc2nc(OCCN(C)S(=O)(=O)C3CCNCC3)nc3c(C(C)C)cnn23)c1 [(VII-bw), (S)-N-(2-((8-isopropyl-4-((1-(3-methoxyphenyl)ethyl)amino)pyrazolo[1,5-a][1,3,5]triazin-2-yl)oxy)ethyl)-N-methylpiperidine-4-sulfonamide] | +++ (IC50>2500 nM) | < 10 | +++ (IC50>2500 nM)
17 | COc1cccc([C@H](C)Nc2nc(OC3COC4(CCNCC4)C3)nc3c(C(C)C)cnn23)c1 (stereo partly drawn) [(VII-bx), 2-(1-oxa-8-azaspiro[4.5]decan-3-yloxy)-8-isopropyl-N-((S)-1-(3-methoxyphenyl)ethyl)pyrazolo[1,5-a][1,3,5]triazin-4-amine] | +++ (IC50>2500 nM) | < 10 | +++ (IC50>2500 nM)
18 | CC(C)c1cnn2c(NC(C)c3ccccc3N3CCC3)nc(O[C@@H]3CCCNC3)nc12 (stereo partly drawn) [(VII-by), N-(1-(2-(azetidin-1-yl)phenyl)ethyl)-8-isopropyl-2-((R)-piperidin-3-yloxy)pyrazolo[1,5-a][1,3,5]triazin-4-amine] | +++ (IC50>2500 nM) | < 10 | +++ (IC50>2500 nM)
